A short description of data set [1]: Tolerability in Balb/c mice, plasma chemistry markers (Example 14). In kind it is in vivo. Conditions: male Balb/c mice, 50 mg/kg s.c. twice a week for four weeks (8 treatments), day 27. As for the experimental part:
(§1) Balb/c mice were treated with modified oligonucleotides selected from studies described above and evaluated for changes in the levels of various plasma chemistry markers.
Groups of male Balb/c mice at 5-6 weeks of age (obtained from Taconic) were injected subcutaneously twice a week for four weeks (for a total of 8 treatments) with 50 mg/kg of modified oligonucleotides. One group of male Balb/c mice was injected with PBS. Mice were euthanized on day 27 post start of treatment (24 hours following the final administration).

A further data set concerns Yap1 mRNA. Description: Dose-dependent inhibition of human Yap1 in A-431 cells (Example 7, 10,000 cells per well, RTS36584). Type of data set: cell-based. Conditions: free uptake; for Yap1 mRNA, % UTC: A-431 cells 10,000 cells per well, 48 hours. In a few lines:
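A-431 cells at 10,000 per well received modified oligonucleotides by free uptake at several doses. After about 48 hours, Yap1 mRNA was quantified with primer-probe set RTS36584, normalized to RIBOGREEN total RNA and expressed as % untreated control. IC50 came from linear regression on a log/linear plot.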

Data set [2] in a line: Tolerability in Balb/c mice, body and organ weights (Example 14). Conditions: male Balb/c mice, 50 mg/kg s.c. twice a week for four weeks (8 treatments); for Kidney weight / Liver weight / Spleen weight: end of study (day 27); for body weight: measured on day 25. In kind it is in vivo. As to the method:
Groups of male Balb/c mice at 5-6 weeks of age (obtained from Taconic) were injected subcutaneously twice a week for four weeks (for a total of 8 treatments) with 50 mg/kg of modified oligonucleotides. One group of male Balb/c mice was injected with PBS. […]
Modified oligonucleotides that caused any changes in organ weights outside the expected range for modified oligonucleotides were excluded from further studies.

Data set [3] concerns subcutaneous DEN carcinomas. Kind of data set: Tumor volume in DEN-HCC model, in combination with a-PD1 antibody (Example 49). In kind it is in vivo, C57BL/6 mice. To be noted: DEN-HCC subcutaneous model, C57BL/6 mice. As for the experimental part:
N-nitrosodiethylamine (DEN) is administered at 25 mg/kg into 15 day old C57/BL6 mice. Carcinomas form 6 months post injection. After formation, carcinomas were then dissected from the liver and passaged subcutaneously into C57BL/6 male mice at 4-6 weeks of age to establish a subcutaneous model. For this experiment, mice were passaged with P8 subcutaneously established DEN carcinomas, rendering P9 for the duration of the experiment. Subcutaneous carcinomas are found to form at 4-6 weeks post implantation. Modified oligonucleotides 792169 (control compound) and 715491 (YAP-1 targeting modified oligonucleotide) were treated subcutaneously into groups of 7-8 mice at 10 mg/kg/week 5 times a week for 11 weeks (total of 55 doses). The PBS-only treated group and the control group were treated 5 times a week for 4 weeks (total of 20 doses). α-PD1 antibody (BioXCell) was treated intraperitoneally at 10 mg/kg/week twice a week for 4 weeks (total of 8 doses). F.D. refers to mice that were sacrificed because their tumor volume became too large.

Data set [4] in a line: Tolerability in Balb/c mice, plasma chemistry markers (Example 10). Type of data set: in vivo. To be noted: male Balb/c mice, 50 mg/kg subcutaneously twice a week for four weeks, day 26. As for the experimental part:
as §1
(§2) Groups of male Balb/c mice at 4-6 weeks of age (obtained from Taconic) were injected subcutaneously twice a week for four weeks (for a total of 8 treatments) with 50 mg/kg of modified oligonucleotides. One group of male Balb/c mice was injected with PBS. Mice were euthanized on day 26 post start of treatment (24 hours following the final administration).

A short description of data set [5]: Tolerability in Balb/c mice, body and organ weights (Example 10). Type of data set: in vivo. To be noted: 50 mg/kg subcutaneously twice a week for four weeks, end of study. As to the method:
as §2
Body weights of Balb/c mice were measured at the end of the study, and the average body weight for each group is presented in the table below. Modified oligonucleotides that caused any changes in organ weights outside the expected range for modified oligonucleotides were excluded from further studies.

The mark [6] stands for this setting: Table 61, A-431 cells 10,000 cells per well.
Setting [7] is: Table 58, A-431 cells 10,000 cells per well.
The mark [8] stands for this setting: Table 56, A-431 cells 10,000 cells per well.

Strand notation (5' to 3'): a small letter for the sugar, then the base; units joined by * are phosphorothioate-linked, units joined directly phosphodiester-linked; [ ] holds rarer units or linkages, { } end groups; capitals alone tell only the bases. k = constrained ethyl (cEt); [5mC] = 5-methylcytosine; d = 2'-deoxy (DNA)

What is called IC50 is the point on the concentration scale where inhibition reaches its midpoint. As for “958534 (kT*kT*k[5mC]*dA*dG*d[5mC]*dA*dT*dA*dG*dA*dA*dG*kT*kA*kG; antisense) [compound 958534]”, in data set [1], the ALT is 1962 U/L, the AST is 1617 U/L, the BUN is recorded as 26 mg/dL and the TBIL was found to be 0.33 mg/dL. In the data set on Yap1 mRNA (Table 61, 15.6 nM), the “Yap1 mRNA, % UTC” value was 85 % UTC. The “Yap1 mRNA, % UTC” value in the data set on Yap1 mRNA (Table 61, 62.5 nM) was found to be 48 % UTC. Moreover, in the data set on Yap1 mRNA (Table 61, 4000.00 nM), the “Yap1 mRNA, % UTC” value stood at 9 % UTC. In addition, in the data set with Yap1 mRNA (setting [6]), the IC50 was determined as 100 nM. Also, in data set [2], the Kidney weight amounted to 0.32 g, the Liver weight is recorded as 1.81 g, the Spleen weight is 0.09 g and the body weight is 22 g.
With “958589 (kG*kT*kA*dA*dA*dG*dG*dA*dA*dG*dA*dT*d[5mC]*kT*k[5mC]*k[5mC]; antisense) [compound 958589]”, in data set [1], the ALT turned out to be 35 U/L, the AST amounted to 66 U/L, the BUN was determined as 24 mg/dL and the TBIL is recorded as 0.21 mg/dL. In addition, in the data set on Yap1 mRNA (Table 61, 15.6 nM), the “Yap1 mRNA, % UTC” value is given as 75 % UTC. Also, the “Yap1 mRNA, % UTC” value with Yap1 mRNA (Table 61, 62.5 nM) is 50 % UTC. The “Yap1 mRNA, % UTC” value in the data set on Yap1 mRNA (Table 61, 4000.00 nM) turned out to be 8 % UTC. Besides, the IC50 with Yap1 mRNA (setting [6]) was 100 nM. In data set [2], this substance registered a Kidney weight of 0.37 g, a Liver weight of 1.40 g, a Spleen weight of 0.10 g and a body weight of 25 g.
In data set [1], “958497 (kA*kT*kA*dT*dG*dG*dA*dA*dA*dT*dT*dG*dT*k[5mC]*kT*k[5mC]) [compound 958497]” gave an ALT of 46 U/L, an AST of 151 U/L, a BUN of 26 mg/dL and a TBIL of 0.24 mg/dL. Moreover, in the data set on Yap1 mRNA (Table 58, 15.6 nM), the “Yap1 mRNA, % UTC” value is on record as 82 % UTC. In addition, the “Yap1 mRNA, % UTC” value with Yap1 mRNA (Table 58, 62.5 nM) turned out to be 35 % UTC. For the same substance, in the data set with Yap1 mRNA (Table 58, 4000.00 nM), the “Yap1 mRNA, % UTC” value amounted to 3 % UTC. The IC50 in the data set with Yap1 mRNA (setting [7]) was 100 nM. In data set [2], this substance returned a Kidney weight of 0.35 g, a Liver weight of 1.31 g, a Spleen weight of 0.11 g and a body weight of 23 g.
In the case of “958622 (kG*kA*kT*dA*dT*dT*d[5mC]*d[5mC]*dG*d[5mC]*dA*dT*dT*kG*k[5mC]*k[5mC]; antisense) [compound 958622]”, in data set [1], the ALT is recorded as 224 U/L, the AST came out at 254 U/L, the BUN amounted to 23 mg/dL and the TBIL came out at 0.24 mg/dL. In addition, the “Yap1 mRNA, % UTC” value in the data set on Yap1 mRNA (Table 58, 15.6 nM) is 79 % UTC. In the data set with Yap1 mRNA (Table 58, 62.5 nM), the “Yap1 mRNA, % UTC” value is 50 % UTC. The “Yap1 mRNA, % UTC” value with Yap1 mRNA (Table 58, 4000.00 nM) is listed as 7 % UTC. Besides, inhibition with Yap1 mRNA (setting [7]) was half-maximal at 100 nM (IC50). Also, in data set [2], the Kidney weight amounted to 0.33 g, the Liver weight was determined as 0.92 g, the Spleen weight is reported as 0.12 g and the body weight is 23 g.
In data set [1], “958596 (kA*kG*k[5mC]*dA*dG*dT*dT*dA*dA*dG*d[5mC]*dA*d[5mC]*kT*kT*kT; antisense) [compound 958596]” yielded an ALT of 207 U/L, an AST of 162 U/L, a BUN of 24 mg/dL and a TBIL of 0.23 mg/dL. In addition, the “Yap1 mRNA, % UTC” value in the data set with Yap1 mRNA (Table 56, 15.6 nM) was found to be 69 % UTC. Further, the “Yap1 mRNA, % UTC” value with Yap1 mRNA (Table 56, 62.5 nM) is 38 % UTC. Moreover, the “Yap1 mRNA, % UTC” value in the data set with Yap1 mRNA (Table 56, 4000.00 nM) came out at 7 % UTC. For the same substance, the IC50 in the data set with Yap1 mRNA (setting [8]) was 40 nM. In addition, in data set [2], the Kidney weight stood at 0.36 g, the Liver weight came to 2.11 g, the Spleen weight was 0.13 g and the body weight was 25 g.
Regarding “715491 (kA*kA*k[5mC]*d[5mC]*dA*dA*d[5mC]*dT*dA*dT*dT*dA*d[5mC]*kT*kT*k[5mC]) [compound 715491]”, the “Average Tumor Volume” value is 356 mm3 in data set [3] (day 1 on treatment); 417 mm3 in data set [3] (day 5 on treatment); 463 mm3 in data set [3] (day 8 on treatment); 461 mm3 in data set [3] (day 11 on treatment); 523 mm3 in data set [3] (day 15 on treatment); 526 mm3 in data set [3] (day 18 on treatment). Also, the “Average Tumor Volume” value in data set [3] (day 23 on treatment) is 658 mm3; in data set [3] (day 25 on treatment), 659 mm3; in data set [3] (day 28 on treatment), 661 mm3; in data set [3] (day 31 on treatment), 740 mm3; in data set [3] (day 35 on treatment) it was 798 mm3; in data set [3] (day 38 on treatment), 741 mm3. Moreover, the “Average Tumor Volume” value in data set [3] (day 43 on treatment) is on record as 723 mm3; in data set [3] (day 45 on treatment), 741 mm3; in data set [3] (day 49 on treatment), 765 mm3; in data set [3] (day 54 on treatment), 780 mm3; in data set [3] (day 58 on treatment), 852 mm3; in data set [3] (day 61 on treatment), 925 mm3. Also, the “Average Tumor Volume” value in data set [3] (day 65 on treatment) was found to be 896 mm3; in data set [3] (day 68 on treatment), 940 mm3; in data set [3] (day 72 on treatment), 953 mm3; in data set [3] (day 75 on treatment) it was 985 mm3; in data set [3] (day 79 on treatment) it was 960 mm3. The “Yap1 mRNA, % UTC” value in the data set with Yap1 mRNA (Table 56, 15.6 nM) came out at 92 % UTC; with Yap1 mRNA (Table 56, 62.5 nM), 83 % UTC; in the data set with Yap1 mRNA (Table 56, 4000.00 nM), 28 % UTC. Half-maximal inhibition with Yap1 mRNA (setting [8]) (IC50) required 270 nM. For the same substance, the “ALT (U/L)” value in data set [4] is given as 33 U/L. Also, the “AST (U/L)” value in data set [4] came to 48 U/L. Also, the “TBIL” value in data set [4] came to 0.11 mg/dL. In addition, the Kidney weight in data set [5] worked out at 0.32 g. In data set [5], this substance displayed a Liver weight of 1.03 g. Also, the Spleen weight in data set [5] is listed as 0.12 g. In data set [5], this substance showed a body weight of 22 g.
In data set [1], “958739 (kA*kG*k[5mC]*dA*dA*dT*dA*dG*dA*dG*dT*dA*dA*k[5mC]*k[5mC]*kA; antisense) [compound 958739]” returned an ALT of 145 U/L, an AST of 186 U/L, a BUN of 21 mg/dL and a TBIL of 0.21 mg/dL. Also, the “Yap1 mRNA, % UTC” value in the data set with Yap1 mRNA (Table 61, 15.6 nM) is 77 % UTC. The “Yap1 mRNA, % UTC” value with Yap1 mRNA (Table 61, 62.5 nM) is 46 % UTC. Further, in the data set on Yap1 mRNA (Table 61, 4000.00 nM), the “Yap1 mRNA, % UTC” value was 7 % UTC. Besides, in the data set on Yap1 mRNA (setting [6]), the IC50 amounted to 100 nM. For the same substance, in data set [2], the Kidney weight was determined as 0.36 g, the Liver weight is reported as 1.58 g, the Spleen weight came out at 0.13 g and the body weight stood at 24 g.
